{"source": "paper PMC2362731", "about": "“Phase I study of Carzelesin (U-80,244) given (4-weekly) by intravenous bolus schedule” (British Journal of Cancer, 1999)", "key": {"patients": {"test_system": "patients", "design": "method as in Sessa et al, 1994", "details": "day 1 q 4 weeks schedule; ref Sessa et al, 1994; cited from earlier work"}, "rabbits": {"test_system": "rabbits", "design": "method as in McGovren et al, 1984", "details": "ref McGovren et al, 1984; cited from earlier work"}, "mice": {"test_system": "mice", "design": "method as in McGovren et al, 1984", "details": "ref McGovren et al, 1984; cited from earlier work"}, "[1]": {"test": "Plasma pharmacokinetics of Carzelesin and metabolites by HPLC, first course", "type": "in vivo, human", "details": "for mean concentration of metabolite: highest dose level 300 of Carzelesin", "method": "Carzelesin is a cyclopropylpyrroloindole analogue which acts as a DNA-sequence-specific alkylating agent. In this phase I study, Carzelesin was given as a 4-weekly 10 min IV infusion to 51 patients with advanced solid tumours. Patients received a median of two courses (range 1–5) at one of nine dose levels: 24, 48, 96, 130, 150, 170, 210, 250 and 300 μg m^−2. According to NCI-CTC criteria, non-haematological toxicities (grade 1/2) included fever, nausea and vomiting, mucositis and anorexia, none of which was clearly dose related. The dose-limiting toxicity was haematological and consisted mainly of neutropenia and to a lesser extent thrombocytopenia. From the dose level 150 μg m^−2, the haematological toxicity (particularly thrombocytopenia) was delayed in onset, prolonged and cumulative in some patients. In several courses, double WBC nadirs occurred. The maximum tolerated dose for a single course was 300 μg m^−2. From the dose level 170 μg m^−2, the intended dose intensity could not be delivered to most patients receiving > 2 courses owing to cumulative haematological toxicity. The dose level with the best dose intensity for multiple courses was 150 μg m^−2. The pharmacokinetics of Carzelesin and its metabolites (U-76,073; U-76,074) have been established in 31 patients during the first course of treatment using a HPLC method. […] The concentration of U-76,074 (active metabolite) extended above the lower limit of quantitation (1 ng ml^−1) for short periods of time and only at the higher dose levels. There was no relationship between neutropenia and the AUC of the prodrug Carzelesin, but the presence of detectable plasma levels of the active metabolite U-76,074 was usually associated with a substantial decrease in ANC values. © 1999 Cancer Research Campaign\nCarzelesin (U-80,244, Figure 1A) is a cyclopropylpyrroloindole (CPI) prodrug analogue of CC-1065. […] CPI drugs are a class of compounds with unique DNA interactive properties. These agents fit into the minor groove region of DNA, and the CPI function in the molecule mediates a covalent binding to the N3 position of adenine in A-T rich regions, thus forming DNA adducts in a sequence selective fashion (Hurley et al, 1984; Reynolds et al, 1985). Three new CPIs have now been developed. […] Bizelesin differs from the classical CPI drugs in that it contains two chloromethyl functions, which are both converted (via intramolecular rearrangements) to the CPI alkyl- ating species that interact with DNA. Consequently, this agent is capable of forming DNA interstrand cross-links (Lee et al, 1991). […] Therefore, efforts were directed to modu- late the alkylation rate by the preparation of CPI prodrugs that would require chemical or enzymatic conversion. The activation of Carzelesin is a two-step reaction with hydrolysis of the phenyl- urethane substituent to form the intermediate compound U-76,073, followed by ring closure to form the active product U-76,074 (Figure 1B). […] This higher efficacy may be related to the pharmacologic features of the compound. […] Phase I study of Carzelesin (U-80,244) given (4-weekly) by intravenous bolus schedule A Awada1, CJA Punt2, MJ Piccart1, O Van Tellingen3, L Van Manen2, J Kerger1, Y Groot4, J Wanders4, J Verweij5 and DJTh Wagener2 1Institut Jules Bordet, Bd de Waterloo 125, 1000 Brussels, Belgium; 2University Hospital, Geert Grooteplein 8, Box 9101, 6500 HB Nijmegen, The Netherlands; 3The Netherlands Cancer Institute (Antoni van Leeuwenhoek Huis), Plesmanlaan 121, 1066 CX Amsterdam, The Netherlands; 4European Organization for Research and Treatment of Cancer - New Drug Development Office, PO Box 7057, Amsterdam, The Netherlands; 5Rotterdam Cancer Institute, Groene Hilledijk 301, 3075 EA Rotterdam, The Netherlands; on behalf of the EORTC Early Clinical Studies Group and EORTC NDDO Summary Carzelesin is a cyclopropylpyrroloindole analogue which acts as a DNA-sequence-specific alkylating agent. […]"}, "[2]": {"test_system": "granulocytes (ANC), white blood cells (WBC), platelets", "test": "Pharmacokinetic-pharmacodynamic relationship of bone marrow toxicity (%decr vs AUC)", "type": "in vivo", "details": "plasma level of U-76,074 above 1 ng ml-1", "description": "Carzelesin (U-80,244, Figure 1A) is a cyclopropylpyrroloindole (CPI) prodrug analogue of CC-1065. […] CPI drugs are a class of compounds with unique DNA interactive properties. These agents fit into the minor groove region of DNA, and the CPI function in the molecule mediates a covalent binding to the N3 position of adenine in A-T rich regions, thus forming DNA adducts in a sequence selective fashion (Hurley et al, 1984; Reynolds et al, 1985). Three new CPIs have now been developed. […] Bizelesin differs from the classical CPI drugs in that it contains two chloromethyl functions, which are both converted (via intramolecular rearrangements) to the CPI alkyl- ating species that interact with DNA. Consequently, this agent is capable of forming DNA interstrand cross-links (Lee et al, 1991). […] Therefore, efforts were directed to modu- late the alkylation rate by the preparation of CPI prodrugs that would require chemical or enzymatic conversion. The activation of Carzelesin is a two-step reaction with hydrolysis of the phenyl- urethane substituent to form the intermediate compound U-76,073, followed by ring closure to form the active product U-76,074 (Figure 1B). […] This higher efficacy may be related to the pharmacologic features of the compound. […] Phase I study of Carzelesin (U-80,244) given (4-weekly) by intravenous bolus schedule A Awada1, CJA Punt2, MJ Piccart1, O Van Tellingen3, L Van Manen2, J Kerger1, Y Groot4, J Wanders4, J Verweij5 and DJTh Wagener2 1Institut Jules Bordet, Bd de Waterloo 125, 1000 Brussels, Belgium; 2University Hospital, Geert Grooteplein 8, Box 9101, 6500 HB Nijmegen, The Netherlands; 3The Netherlands Cancer Institute (Antoni van Leeuwenhoek Huis), Plesmanlaan 121, 1066 CX Amsterdam, The Netherlands; 4European Organization for Research and Treatment of Cancer - New Drug Development Office, PO Box 7057, Amsterdam, The Netherlands; 5Rotterdam Cancer Institute, Groene Hilledijk 301, 3075 EA Rotterdam, The Netherlands; on behalf of the EORTC Early Clinical Studies Group and EORTC NDDO Summary Carzelesin is a cyclopropylpyrroloindole analogue which acts as a DNA-sequence-specific alkylating agent. In this phase I study, Carzelesin was given as a 4-weekly 10 min IV infusion to 51 patients with advanced solid tumours. Patients received a median of two courses (range 1-5) at one of nine dose levels: […]. According to NCI-CTC criteria, non- haematological toxicities (grade 1/2) included fever, nausea and vomiting, mucositis and anorexia, none of which was clearly dose related. […] The concentration of U-76,074 (active metabolite) extended above the lower limit of quantitation (1 ng ml-1) for short periods of time and only at the higher dose levels. […]"}}, "data": [{"molecule": "Cn1cc(NC(=O)c2cc(NC(=O)c3cc(NC(=O)c4ccc(N(CCCl)CCCl)cc4)cn3C)cn2C)cc1C(=O)NCCC(=N)N", "note": "[Tallimustine]", "values": [{"measurement": "dose-limiting toxicity", "setting": "patients", "result": "brief neutropenia"}]}, {"molecule": "COc1c(O)c2c(c3cc(C(=O)N4CCc5c4c(O)c(OC)c4[nH]c(C(=O)N6CC7CC78C6=CC(=O)c6[nH]cc(C)c68)cc54)[nH]c13)CCN2C(N)=O", "note": "(centres unmarked) [CC-1065]", "values": [{"measurement": "toxicity at sub-therapeutic doses", "setting": "rabbits", "result": "delayed fatal toxicity"}, {"measurement": "toxicity at sub-therapeutic doses", "setting": "mice", "result": "delayed fatal toxicity"}]}, {"molecule": "CCN(CC)c1ccc2cc(C(=O)Nc3ccc4[nH]c(C(=O)N5C[C@@H](CCl)c6c5cc(O)c5[nH]cc(C)c65)cc4c3)oc2c1", "note": "[U-76,073]", "values": [{"measurement": "mean concentration of metabolite", "setting": "[1]", "result": 18, "unit": "ng/mL"}]}, {"molecule": "CCN(CC)c1ccc2cc(C(=O)Nc3ccc4[nH]c(C(=O)N5C[C@H]6C[C@@]67C5=CC(=O)c5[nH]cc(C)c57)cc4c3)oc2c1", "note": "[U-76,074]", "values": [{"measurement": "decrease in ANC values associated with detectable plasma levels", "setting": "[2]", "result": "greater than 60%"}, {"measurement": "plasma level of active metabolite, for short periods of time in most patients", "setting": "[1]; Carzelesin dose of 130 or higher", "result": "exceeded 1 ng ml-1"}, {"measurement": "plasma concentration of active metabolite in the majority of patients", "setting": "[1]; from the Carzelesin dose level 96", "result": "1 to 2", "unit": "ng/mL"}, {"measurement": "mean concentration of metabolite", "setting": "[1]", "result": 3, "unit": "ng/mL"}]}]}
